Where a name gives a salt, the structure may show the parent alone.
Key:
[1] = Anti-oxidant activity (Table 6); details: read-out: IC-50 Anti-Oxidant Activity; nd = not detectable at ≤ 500 uM
[2] = test system: PLA2; assay: Anti-PLA2 activity (Table 6); type: biochemical; details: read-out: IC-50 Anti-PLA2 Activity

Row | Structure (SMILES) | IC50 [1] | IC50 [2]
1 | CCCCCCCC/C=C\CCCCCCCC(=O)OCC(COC(=O)CCCCCCC/C=C\CCCCCCCC)(COC(=O)CCCCCCC/C=C\CCCCCCCC)NCCS(=O)(=O)O [PX-13, TES Trioleate] | 60 µM | 2.2 µM
2 | CCCCCCCC/C=C\CCCCCCCC(=O)OCC1(COC(=O)CCCCCCC/C=C\CCCCCCCC)COC(=O)CN1C(=O)CCCCCCC/C=C\CCCCCCCC [PX-11, Tricinyl Trioleate] | 145 µM | 2.6 µM
3 | CCCCC/C=C\C/C=C\CCCCCCCC(=O)OC(C(=O)O)C(OC(=O)CCCCCCC/C=C\C/C=C\CCCCC)C(=O)O (centres unmarked) [PX-9] | 100 µM | 7.5 µM
4 | CCCCCCCC/C=C\CCCCCCCC(=O)OC(C(=O)O)C(OC(=O)CCCCCCC/C=C\CCCCCCCC)C(=O)O (centres unmarked) [PX-10] | 60 µM | 7 µM
5 | CCCCCCCC/C=C\CCCCCCCC(=O)OCC(N)(COC(=O)CCCCCCC/C=C\CCCCCCCC)COC(=O)CCCCCCC/C=C\CCCCCCCC [PX-12, P-Toluene Sulfonate Salt of Tris Trioleate] | 50 µM | 1.5 µM
6 | CCCCC/C=C\C/C=C\CCCCCCCC(=O)OCC1(COC(=O)CCCCCCC/C=C\C/C=C\CCCCC)COC(=O)CN1C(=O)CCCCCCC/C=C\C/C=C\CCCCC [PX-15] | – | 19.2 µM
